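GI50 is the concentration that inhibits growth by half. At the TGI there is no net growth.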
Legend:
Test in all cases: NCI tumour cell line growth inhibition, 384-well format
ACHN renal = tested on: ACHN renal
RPMI-8226 leukemia = tested on: RPMI-8226 leukemia
K-562 leukemia = tested on: K-562 leukemia
TK-10 renal = tested on: TK-10 renal
M14 melanoma = tested on: M14 melanoma
NCI-H522 lung = tested on: NCI-H522 lung
HOP-62 NSCLC = tested on: HOP-62 NSCLC
UACC-257 melanoma = tested on: UACC-257 melanoma
SNB-75 CNS = tested on: SNB-75 CNS
MDA-MB-468 breast = tested on: MDA-MB-468 breast
RXF 393 renal = tested on: RXF 393 renal
CCRF-CEM leukemia = tested on: CCRF-CEM leukemia
OVCAR-3 ovarian = tested on: OVCAR-3 ovarian
MDA-MB-435 melanoma = tested on: MDA-MB-435 melanoma
DU-145 prostate = tested on: DU-145 prostate
A549 NSCLC = tested on: A549 NSCLC
NCI-H23 lung = tested on: NCI-H23 lung
SK-MEL-2 melanoma = tested on: SK-MEL-2 melanoma
SF-268 CNS = tested on: SF-268 CNS
OVCAR-8 ovarian = tested on: OVCAR-8 ovarian
LOX IMVI melanoma = tested on: LOX IMVI melanoma
MOLT-4 leukemia = tested on: MOLT-4 leukemia
HOP-92 NSCLC = tested on: HOP-92 NSCLC
HCT-15 colon = tested on: HCT-15 colon
BT-549 breast = tested on: BT-549 breast
SW-620 colon = tested on: SW-620 colon
MALME-3M melanoma = tested on: MALME-3M melanoma
NCI-H322M lung = tested on: NCI-H322M lung
UO-31 renal = tested on: UO-31 renal
SF-539 CNS = tested on: SF-539 CNS
MDA-MB-231 breast = tested on: MDA-MB-231 breast
OVCAR-4 ovarian = tested on: OVCAR-4 ovarian
OVCAR-5 ovarian = tested on: OVCAR-5 ovarian
UACC-62 melanoma = tested on: UACC-62 melanoma
PC-3 prostate = tested on: PC-3 prostate
SNB-19 CNS = tested on: SNB-19 CNS
SK-MEL-28 melanoma = tested on: SK-MEL-28 melanoma
HS 578T breast = tested on: HS 578T breast
EKVX NSCLC = tested on: EKVX NSCLC
SN12C renal = tested on: SN12C renal
HL-60(TB) leukemia = tested on: HL-60(TB) leukemia

Work on `CO[C@H](C(=O)[C@@H](O)[C@@H](C)O)[C@@H]1Cc2cc3cc(OC4CC(OC5CC(O)C(O)C(C)O5)C(O)C(C)O4)c(C)c(O)c3c(O)c2C(=O)[C@H]1OC1CC(OC2CC(OC3CC(C)(O)C(O)C(C)O3)C(O)C(C)O2)C(O)C(C)O1` (some centres undefined) yielded a GI50 (ACHN renal) of 54.6 nM, a TGI (ACHN renal) of 294 nM and a GI50 (RPMI-8226 leukemia) of 11.1 nM. It also gave a TGI (RPMI-8226 leukemia) of 23.6 nM, a GI50 (K-562 leukemia) of 18.8 nM and a TGI (K-562 leukemia) of 40.4 nM. The GI50 (TK-10 renal) was 50.3 nM, the GI50 (M14 melanoma) was 18 nM and the TGI (M14 melanoma) was 39.8 nM. It also gave a GI50 (NCI-H522 lung) of 13 nM, a TGI (NCI-H522 lung) of 26.8 nM and a GI50 (HOP-62 NSCLC) of 13.7 nM. It also gave a TGI (HOP-62 NSCLC) of 29.5 nM, a GI50 (UACC-257 melanoma) of 18.5 nM and a TGI (UACC-257 melanoma) of 34.5 nM. It also gave a GI50 (SNB-75 CNS) of 11.8 nM, a TGI (SNB-75 CNS) of 30.4 nM and a GI50 (MDA-MB-468 breast) of 16.3 nM. For the same compound, the TGI (MDA-MB-468 breast) was 32.4 nM, the GI50 (RXF 393 renal) was 10.7 nM and the TGI (RXF 393 renal) was 23.1 nM. It also gave a GI50 (CCRF-CEM leukemia) of 33.9 nM, a TGI (CCRF-CEM leukemia) of 110 nM and a GI50 (OVCAR-3 ovarian) of 20.3 nM. The TGI (OVCAR-3 ovarian) was 73.4 nM, the GI50 (MDA-MB-435 melanoma) was 18.9 nM and the TGI (MDA-MB-435 melanoma) was 38.4 nM. The GI50 (DU-145 prostate) was 28.8 nM, the GI50 (A549 NSCLC) was 30.4 nM and the GI50 (NCI-H23 lung) was 18.4 nM. It also gave a TGI (NCI-H23 lung) of 35.9 nM, a GI50 (SK-MEL-2 melanoma) of 32.9 nM and a TGI (SK-MEL-2 melanoma) of 47.9 nM. The GI50 (SF-268 CNS) was 17.2 nM, the TGI (SF-268 CNS) was 965 nM and the GI50 (OVCAR-8 ovarian) was 15.5 nM. The TGI (OVCAR-8 ovarian) was 29.9 nM, the GI50 (LOX IMVI melanoma) was 16.9 nM and the TGI (LOX IMVI melanoma) was 31.2 nM. The TGI (MOLT-4 leukemia) was 17.7 nM, the GI50 (HOP-92 NSCLC) was 31.7 nM and the GI50 (HCT-15 colon) was 139 nM. The TGI (HCT-15 colon) was 970 nM, the GI50 (BT-549 breast) was 10.6 nM and the TGI (BT-549 breast) was 23.7 nM. It also gave a GI50 (SW-620 colon) of 32.4 nM, a GI50 (MALME-3M melanoma) of 14.1 nM and a TGI (MALME-3M melanoma) of 28 nM. The GI50 (NCI-H322M lung) was 17.4 nM, the TGI (NCI-H322M lung) was 42.2 nM and the GI50 (UO-31 renal) was 182 nM. The TGI (UO-31 renal) was 451 nM, the GI50 (SF-539 CNS) was 13.6 nM and the TGI (SF-539 CNS) was 27.1 nM. The GI50 (MDA-MB-231 breast) was 16.6 nM, the TGI (MDA-MB-231 breast) was 37.2 nM and the GI50 (OVCAR-4 ovarian) was 31.6 nM. For the same compound, the TGI (OVCAR-4 ovarian) was 371 nM, the GI50 (OVCAR-5 ovarian) was 19.5 nM and the TGI (OVCAR-5 ovarian) was 43.5 nM. For the same compound, the TGI (UACC-62 melanoma) was 21.6 nM, the GI50 (PC-3 prostate) was 32.9 nM and the TGI (PC-3 prostate) was 220 nM. It also gave a GI50 (SNB-19 CNS) of 23.7 nM, a GI50 (SK-MEL-28 melanoma) of 16.4 nM and a TGI (SK-MEL-28 melanoma) of 30.5 nM. It also gave a GI50 (HS 578T breast) of 13.2 nM, a TGI (HS 578T breast) of 27.7 nM and a GI50 (EKVX NSCLC) of 75.1 nM. The TGI (EKVX NSCLC) was 11000 nM, the GI50 (SN12C renal) was 15.2 nM and the TGI (SN12C renal) was 36.9 nM. The GI50 (HL-60(TB) leukemia) was 14 nM and the TGI (HL-60(TB) leukemia) was 29.4 nM.
